How the values were obtained:
A549 tumorspheroids [1] = test: 3D tumorspheroid growth (CellTiter-Glo 3D); type: cell-based
Experimental: (§1) A549 and NCI-H460 cell lines were placed in 96-well ultra-low attachment (ULA) plates at 7,000 and 1500 cells/well, and centrifuged at 1000 rpm for 10 minutes. Then, they were cultured in Roswell Park Memorial Institute (RPMI) 1640 medium mixed with 0.5% Matrigel, 10% Fetal Bovine Serum (FBS), and 1× penicillin-streptomycin for 2 days. They were treated with IHT, and the degree of cell growth was measured with CellTiter-Glo 3D (Promega, Madison, WI, USA) reagent after 72 hours, and 2D cultured cells were exposed to IHT at the indicated concentration for 48 hours, and then the cell growth was measured with CellTiter-Glo reagent. The average effective dose ED50 of IHT was determined by analyzing the dose-response curve with GraphPad Prism, and the results are shown in FIG. 2. The scale bar was 100 μm, and all data were expressed as mean±standard deviation.
(§2) After IHT was treated onto the 3D tumorspheroid of NCI-H460, or siNR4A1 and IHT were treated in combination on the 3D tumorspheroid of A549, the growth inhibition and cell death induction of tumorspheroids were observed. Negative control (siNC) or siNR4AT-transfected A549 and non-transfected NCI-H460 tumorspheroids were treated with IHT at each concentration, and after 48 and 72 hours, the cell growth was measured using CellTiter-Glo 3D cell viability assay kit (Promega). A549 cells were transfected with […] siRNA using Lipofectamine 2000 (Invitrogen), and siNR4A1 of SEQ ID NO: 1 (5′-GAGCUAUUCCAUGCCUACG-3′) and SEQ ID NO: 2 (5′-GGAUACUGGAUACACCCGU-3′) were mixed and used.

NCI-H460 tumorspheroids [2] = test: 3D tumorspheroid growth (CellTiter-Glo 3D); type: cell-based
Experimental: as §1, §2

A549 cell line = test: 2D culture cell growth (CellTiter-Glo); type: cell-based; settings: Homo sapiens; 2D culture A549, 48 hours; read-out: ED50, cell proliferation
Experimental: as §1

NCI-H460 cell line = test: 2D culture cell growth (CellTiter-Glo); type: cell-based; settings: Homo sapiens; 2D culture NCI-H460, 48 hours; read-out: ED50, cell proliferation
Experimental: as §1

p21 protein = test: Western blot for p21 protein in 2D-cultured NCI-H460; type: cell-based; settings: NCI-H460 2D, 48 hours, low concentrations below the ED50
Experimental: NCI-H460 cell line was cultured in 2D, treated with IHT at the indicated concentration for 48 hours, and then Western blots were performed to measure changes in p21 protein.
(§3) The cells were dissolved in a RIPA (radio immunoprecipitation) buffer containing protease inhibitors, phosphatase inhibitors, PMSF (phenylmethylsulfonyl fluoride), and DTT (dithiothreitol), and protein concentration was quantified with a micro BCA test kit. Equal amounts of protein was added to a polyacrylamide gel containing SDS (Sodium dodecyl sulphate), isolated by electrophoresis, and transferred to a polyvinylidene difluoride (PVDF) membrane. The membrane was blocked with a solution containing 5%-TBST (tris-buffered saline with Tween20) milk, and the primary antibody was exposed at 4 degrees Celsius for 16 hours.
The antibodies used were as follows: β-actin (sc-477778), p53 (sc-126), Bax (sc-526) (Santacruz Biotechnology); cleaved caspase-7 (Asp198) (#9491), cleaved poly (ADP-ribose) polymerase (PARP) (#9541), X chromosome-linked inhibitor of apoptosis (XIAP) (#2045), Survivin (#2808), p21 (#2947), phospho-Akt (#9275), cleaved caspase-9 (#9501), caspase-9 (#9502), caspas-8 (#9746), phospho-Stat3 (#9145) (Cell Signaling Technology). […]

NCI-H460 tumorspheroids [3] = test: LIVE/DEAD cell death staining of tumorspheroids; type: cell-based; settings: NCI-H460 tumorspheroids, 1,3,5 uM IHT, 72 hours
Experimental: (§4) After the IHT was treated with NCI-H460 and A549 tumorspheroids for 72 hours, the cell death was observed using LIVE/DEAD Viability/Cytotoxicity Kit (Thermo Scientific). Live cells were stained with green fluorescence-labeled calcein-AM, dead cells were stained with red fluorescence-labeled ethidium homodimer-1 (EthD-1), and images were taken at 100× magnification using the Operetta High Content Screening (HCS) System.

A549 tumorspheroids [4] = test: LIVE/DEAD cell death staining of tumorspheroids; type: cell-based; settings: 72 hours
Experimental: as §2, §4

A549 tumorspheroids [5] = test: Apoptosis by Cell Death detection ELISA kit; type: cell-based; settings: 72 hours
Experimental: (§5) An experiment was designed to confirm whether cell death induced in 3D tumorspheroids was apoptosis. Induction of apoptosis was examined after treating NCI-H460 tumorspheroids with IHT or treating A549 tumorspheroids with IHT along with siNC or siNR4A1. NCI-H460 and siRNA-treated A549 tumorspheroids were treated with IHT at the indicated concentrations for 72 hours, and then apoptosis was measured using a Cell Death detection ELISA kit. Further, after IHT treatment for 72 hours, single cells were isolated from tumorspheroids, stained with Annexin V and 7-AAD, and analyzed by a flow cytometry. Apoptotic cell population was represented as the ratio of cells in the early apoptotic processes that are annexin V-positive/7-AAD-negative, and terminal apoptotic process positive for both annexin V/7-AAD (FIG. 5). All data are expressed as mean±standard deviation. *p<0.05 indicates a significant difference compared to a control group, and **p<0.01 indicates a significant difference compared to a control group.

NCI-H460 tumorspheroids [6] = test: Apoptosis by Cell Death detection ELISA kit; type: cell-based; settings: 72 hours
Experimental: as §5

A549 tumorspheroids [7] = test: Annexin V / 7-AAD flow cytometry; type: cell-based; settings: 72 hours
Experimental: as §5
Further, using the phenomenon that annexin V was exposed to the outside of the cell membrane in the early stage of apoptosis, cells were stained with annexin V, stained with 7-Amino-Actinomycin D (7-AAD) penetrating into dead cells, and analyzed with a flow cytometry, thus showing apoptosis and cell death.

A549 tumorspheroids [8] = test: Mitochondrial membrane potential (JC-1, flow cytometry); type: cell-based; settings: IHT 1 uM and siNR4A1 simultaneously, 48 hours
Experimental: (§6) In the induction of apoptosis by the intrinsic pathway, a decisive process is the release of cytochrome C inside mitochondria to the outside due to changes in mitochondrial membrane potential. After 48 hours of treatment to measure mitochondrial membrane potential changes, tumorspheroids were isolated into single cells and stained with JC-1, and flow cytometry was used to measure the percentage of mitochondria-damaged cells. The percentage of cells in which JC-lexists as a single entity, meaning a decrease in mitochondrial membrane potential, was indicated. In addition, A549 tumorspheroids transfected with negative control (siNC) or siNR4A1 and NCI-H460 tumorspheroids were treated with IHT for 48 hours, and then subjected to Western blot analysis for apoptosis-related protein changes, and the results are shown in FIG. 6.

NCI-H460 tumorspheroids [9] = test: as above; type: cell-based; settings: 3 uM IHT, 48 hours
Experimental: as §6

A549 tumorspheroids [10] = test: Western blot of apoptosis-related proteins; type: cell-based
Experimental: as §3
(§7) The antibodies used were as follows: β-actin (sc-477778), p53 (sc-126), Bax (sc-526) (Santacruz Biotechnology); cleaved caspase-7 (Asp198) (#9491), cleaved poly (ADP-ribose) polymerase (PARP) (#9541), X chromosome-linked inhibitor of apoptosis (XIAP) (#2045), Survivin (#2808), p21 (#2947), phospho-Akt (#9275), cleaved caspase-9 (#9501), caspase-9 (#9502), caspas-8 (#9746), phospho-Stat3 (#9145) (Cell Signaling Technology).
(§8) Subsequently, the membrane was washed with TBSP, and then exposed to the secondary antibody conjugated with HRP (horseradish peroxidase, Santacruz Biotechnology) at room temperature for 1 hour, washed, and film-developed using an ECL (enhanced chemiluminescence, Amersham) kit to observe the bands.
as §6

NCI-H460 tumorspheroids [11] = test: Western blot of apoptosis-related proteins; type: cell-based
Experimental: as §3, §7, §8, §6

[12] = tested on: C. elegans jgIs25 (EGFR T790M-L858R); test: Multivulva (Muv) formation in C. elegans with EGFR double mutation; type: in vivo
Excerpt: In non-small cell lung cancer patients with EGFR (epidermal growth factor receptor) exon21 mutation (L858R), the therapeutic effect of EGFR-TKI (tyrosine kinase inhibitor) is excellent. However, tolerance develops quickly, one mechanism of which is because the second mutation (L858R, T790M) occurs in EGFR. C. elegans with EGFR double mutation (L858R, T790M) causes cell proliferation (multivulva formation). It was observed whether cell proliferation could be inhibited upon IHT treatment. This is an in vivo system that can predict the therapeutic effect of lung cancer resistant to EGFR-TKIs, by introducing genetic mutations observed in cells showing drug resistance to the EGFR-TKI (tyrosine kinase inhibitor) used as a therapeutic agent for human lung cancer.
After IHT treatment to C. elegans jgIs25, observations were performed using a differential interference contrast (DIC) microscope. 0.5% DMSO was used as a vehicle control. […] 0.1% DMSO as a control or 5 μM IHT was. Data are expressed as mean±standard error, **P<0.01 and ***P<0.001.

A549 xenograft tumors = test: A549 xenograft tumor growth; type: in vivo; settings: athymic nude mice, intratumoral IHT 20 μg/kg (500 ng) twice a week with siNR4A1 once a week, 4 weeks
Experimental: Further, A549 cells (5×10^6) were inoculated into the dorsal side of athymic nude mice, and when the tumor size reached 100-150 mm^3, siRNA (50 pmoles) and IHT (500 ng) were intratumorally administered once a week and twice a week, respectively, for 4 weeks. The tumor size was monitored twice a week, and tumor volume was calculated by the following Equation 3. […] V(mm^3)=length×width×width/2 [Equation 3]

A549 tumorspheroids [13] = test: Combined treatment of cisplatin and IHT, tumorspheroid cell growth; type: cell-based
Experimental: A549 tumorspheroids were grown for 3 days, then subjected to the combined treatment of cisplatin and IHT at the indicated concentrations.

[14] = A549 tumorspheroids with inhibition of NR4A1 expression (siNR4A1), IHT 1 uM

COC(=O)[C@@H](O)[C@](O)(CCC(C)C)C(=O)O[C@@H]1C(OC)=C[C@]23CCCN2CCc2cc4c(cc2C13)OCO4 (stereo partly shown) [IHT, isoharringtonine]
growth inhibition of tumorspheroids (A549 tumorspheroids [1]; [14]): rapid growth-inhibitory effect | growth inhibition of tumorspheroids (A549 tumorspheroids [1]; A549 tumorspheroids, IHT alone (siNC), 48 and 72 hours): did not have a significant growth-inhibitory effect | EC50 (A549 tumorspheroids [1]; Homo sapiens, A549 3D tumorspheroid, 72 hours, ED50 'predicted'): 9600 ± 1120 nM | EC50 (NCI-H460 tumorspheroids [2]; Homo sapiens, 3D tumorspheroid of NCI-H460, 72 hours, read-out: average effective amount (ED50), tumorspheroid growth): 143 ± 40 nM | growth inhibition of tumorspheroids (NCI-H460 tumorspheroids [2]; NCI-H460 tumorspheroids, 1,3,5 uM IHT, 48 and 72 hours): effectively induced at all concentrations | EC50 (A549 cell line): 481 ± 50 nM | EC50 (NCI-H460 cell line): 94 ± 20 nM | change in p21 protein (p21 protein): increased p21 | cell death of tumorspheroids (NCI-H460 tumorspheroids [3]): effectively induced at all concentrations | cell death of tumorspheroids (A549 tumorspheroids [4]; [14]): sharply induced cell death | cell death of tumorspheroids (A549 tumorspheroids [4]; A549 tumorspheroids, IHT alone): did not induce cell death | apoptosis (DNA fragments, ELISA) (A549 tumorspheroids [5]; IHT alone): apoptosis was not induced | apoptosis (DNA fragments, ELISA) (A549 tumorspheroids [5]; simultaneous treatment with siNR4A1, IHT 1 uM): sharply increased apoptosis | apoptosis (DNA fragments, ELISA) (NCI-H460 tumorspheroids [6]): increased from 1 uM in a dose-dependent manner | apoptosis (annexin V/7-AAD) (A549 tumorspheroids [7]; IHT alone): did not induce apoptosis | apoptosis (annexin V/7-AAD) (A549 tumorspheroids [7]; simultaneous treatment with siNR4A1, IHT 1 μM): sharply increased apoptosis | mitochondrial membrane potential (A549 tumorspheroids [8]): induced a decrease in mitochondrial membrane potential | mitochondrial membrane potential (NCI-H460 tumorspheroids [9]): changes in mitochondrial membrane potential were induced | cleavage of caspase-9 (A549 tumorspheroids [10]; IHT+siNR4A1, 48 hours): induced the cleavage of caspoase-9 | Mcl-1 and XIAP protein (A549 tumorspheroids [10]; both IHT and siNR4A1, 48 hours): induced a reduction of Mcl-1 and XIAP | phospho-Akt (A549 tumorspheroids [10]; both IHT and siNR4A1, 48 hours): reduction of phospho-Akt | Bcl-2 and Mcl-1 protein (NCI-H460 tumorspheroids [11]; 48 hours): induces the reduction of Bcl-2 and Mcl-1 | Survivin and XIAP protein (NCI-H460 tumorspheroids [11]; 48 hours): induces the decrease of Survivin and XIAP | p53 protein (NCI-H460 tumorspheroids [11]; 48 hours): induces an increase in p53 | phospho-Akt (NCI-H460 tumorspheroids [11]; 48 hours): reduction of phospho-Akt | cleavage of caspase-9 (NCI-H460 tumorspheroids [11]; IHT 48 hours): induced the cleavage of caspoase-9 | multivulva formation ([12]; C. elegans jgIs25, high concentrations of IHT): multivulva formation was significantly inhibited | multivulva formation ([12]; C. elegans jgIs25, low IHT concentration (5 μM) with sinhr-6 (nhr-6 RNAi)): multivulva formation was significantly inhibited | multivulva formation ([12]; C. elegans jgIs25, low concentration (5 uM) IHT): multivulva formation was not inhibited | xenograft tumor suppression (tumor volume) (A549 xenograft tumors): tumor suppressive effects were observed | cell growth inhibition (A549 tumorspheroids [13]; A549 tumorspheroids, 10 μM IHT in combination with 10 μM cisplatin, 3 days): stronger inhibition of cell growth | cell growth inhibition (A549 tumorspheroids [13]; A549 tumorspheroids, 10 μM IHT, 3 days): very effectively inhibited | inhibition at 1 µM (A549 tumorspheroids [13]; Homo sapiens, A549, 72 h, read-out: cell growth inhibition): ~48%

N.N.[Cl][Pt][Cl] [cisplatin, reference compound]
inhibition of tumorspheroid growth (A549 tumorspheroids [13]; A549 tumorspheroids, 30 μM cisplatin alone, 3 days): significant but minute inhibition of growth

— patent US12636331B2, “Composition for preventing or treating lung cancer, comprising a compound isolated from Cephalotaxus extract as an active ingredient” (priority 2020, dated 2026)
